Where “and” joins values, the source holds several entries; their conditions need not be identical. Equal values may be shown once. Toxic doses and inconclusive results are not listed.
System: L1210 leukemia ip in BDF1 mice, survival T/C
Assay: NCI In Vivo Anticancer Drug Screen. Data for tumor model L1210 Leukemia (intraperitoneal) in B6D2F1 (BDF1) mice
Conditions: endpoint: mean survival time, higher = longer survival
Summary of the method: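 Value reflects the ratio of survival in compound-treated mice to survival in vehicle-treated controls, with both groups carrying the same transplanted tumor.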

[1] = dose: 50.0 mg/kg/injection, schedule: Q01DX009 (ip), vehicle: Klucel (hydroxypropylcellulose) (HPC)
[2] = dose: 100.0 mg/kg/injection, schedule: Q01DX009 (ip), vehicle: Klucel (hydroxypropylcellulose) (HPC)
[3] = dose: 100.0 mg/kg/injection, schedule: Q04DX003 (ip), vehicle: Klucel (hydroxypropylcellulose) (HPC)
[4] = dose: 200.0 mg/kg/injection, schedule: Q01DX009 (ip), vehicle: Klucel (hydroxypropylcellulose) (HPC)
[5] = dose: 200.0 mg/kg/injection, schedule: Q04DX003 (ip), vehicle: Klucel (hydroxypropylcellulose) (HPC)
[6] = dose: 400.0 mg/kg/injection, schedule: Q04DX003 (ip), vehicle: Klucel (hydroxypropylcellulose) (HPC)
[7] = dose: 100.0 mg/kg/injection, schedule: Q01DX009 (ip), vehicle: saline
[8] = dose: 200.0 mg/kg/injection, schedule: Q01DX009 (ip), vehicle: saline
[9] = dose: 400.0 mg/kg/injection, schedule: Q01DX009 (ip), vehicle: saline
[10] = dose: 400.0 mg/kg/injection, schedule: Q01DX009 (ip), vehicle: Klucel (hydroxypropylcellulose) (HPC)
[11] = dose: 100.0 mg/kg/injection, schedule: Q04DX003 (ip), vehicle: saline
[12] = dose: 200.0 mg/kg/injection, schedule: Q04DX003 (ip), vehicle: saline
[13] = dose: 400.0 mg/kg/injection, schedule: Q04DX003 (ip), vehicle: saline
[14] = dose: 100.0 mg/kg/injection, schedule: Q04DX003 (ip), vehicle: saline with Tween-80
[15] = dose: 200.0 mg/kg/injection, schedule: Q04DX003 (ip), vehicle: saline with Tween-80

Compound: O=C(Nc1ccc(C2=NCCN2)cc1)c1ccc(C(=O)Nc2ccc(C3=NCCN3)cc2)nc1
- T/C (dose: 1.0 mg/kg/injection, schedule: Q01DX Z (ip), vehicle: saline): 108 % of control
- T/C (dose: 2.0 mg/kg/injection, schedule: Q01DX Z (ip), vehicle: saline): 119 % of control
- T/C (dose: 15.0 mg/kg/injection, schedule: Q01DX Z (ip), vehicle: carboxymethylcellulose (CMC)): 228 % of control
- T/C (dose: 16.0 mg/kg/injection, schedule: Q01DX Z (ip), vehicle: saline): 221 % of control
- T/C (dose: 30.0 mg/kg/injection, schedule: Q01DX Z (oral), vehicle: saline): 104 % of control
- T/C (dose: 60.0 mg/kg/injection, schedule: Q01DX Z (ip), vehicle: carboxymethylcellulose (CMC)): 117 % of control
- T/C (dose: 60.0 mg/kg/injection, schedule: Q01DX Z (oral), vehicle: saline): 98 % of control
- T/C (dose: 120.0 mg/kg/injection, schedule: Q01DX Z (oral), vehicle: saline): 106 % of control
- T/C (dose: 240.0 mg/kg/injection, schedule: Q01DX Z (oral), vehicle: saline): 97 % of control
- T/C (dose: 480.0 mg/kg/injection, schedule: Q01DX Z (oral), vehicle: saline): 98 % of control
- T/C (dose: 960.0 mg/kg/injection, schedule: Q01DX Z (oral), vehicle: saline): 97 % of control

Compound: CC(C)=CC(=O)NC(=O)NS(=O)(=O)c1ccc(Cl)cc1
- T/C [1]: 100 % of control
- T/C [2]: 107 % of control
- T/C [3]: 105 % of control
- T/C [4]: 98 % of control
- T/C [5]: 102 % of control
- T/C [6]: 106 % of control

Compound: C1COC(C2OCCO2)C1 (centres undefined)
- T/C [7]: 103 % of control
- T/C [8]: 90 % of control
- T/C [9]: 95 % of control

Compound: Cc1ccc(Cl)c2ccccc12
- T/C (dose: 12.5 mg/kg/injection, schedule: Q01DX009 (ip), vehicle: saline with Tween-80): 106 % of control
- T/C (dose: 25.0 mg/kg/injection, schedule: Q01DX009 (ip), vehicle: saline with Tween-80): 104 % of control
- T/C (dose: 50.0 mg/kg/injection, schedule: Q01DX009 (ip), vehicle: saline with Tween-80): 106 % of control
- T/C (dose: 100.0 mg/kg/injection, schedule: Q01DX009 (ip), vehicle: saline with Tween-80): 93 % of control
- T/C (dose: 200.0 mg/kg/injection, schedule: Q01DX009 (ip), vehicle: saline with Tween-80): 90 % of control
- T/C (dose: 400.0 mg/kg/injection, schedule: Q01DX009 (ip), vehicle: saline with Tween-80): 101 % of control

Compound: CN1CCCCC1CCC1c2ccccc2CCc2ccccc21 (centres undefined)
- T/C (dose: 1.56 mg/kg/injection, schedule: Q01DX009 (ip), vehicle: saline): 104 % of control
- T/C (dose: 3.12 mg/kg/injection, schedule: Q01DX009 (ip), vehicle: saline): 104 % of control
- T/C (dose: 6.25 mg/kg/injection, schedule: Q01DX009 (ip), vehicle: saline): 98 % of control and 99 % of control
- T/C (dose: 12.5 mg/kg/injection, schedule: Q01DX009 (ip), vehicle: saline): 94 % of control and 103 % of control
- T/C (dose: 25.0 mg/kg/injection, schedule: Q01DX009 (ip), vehicle: saline): 107 % of control and 116 % of control

Compound: COc1ccc(S(=O)(=O)F)cc1NC(=O)CCc1ccc(N2C(N)=NC(N)=NC2(C)C)cc1
- T/C (dose: 100.0 mg/kg/injection, schedule: Q01DX001 (ip), vehicle: gum acacia): 115 % of control
- T/C (dose: 200.0 mg/kg/injection, schedule: Q01DX001 (ip), vehicle: gum acacia): 101 % of control

Compound: O=C1CCc2cc(Cl)ccc2O1
- T/C (dose: 50.0 mg/kg/injection, schedule: Q01DX001 (ip), vehicle: carboxymethylcellulose (CMC)): 103 % of control
- T/C (dose: 100.0 mg/kg/injection, schedule: Q01DX001 (ip), vehicle: carboxymethylcellulose (CMC)): 100 % of control
- T/C (dose: 200.0 mg/kg/injection, schedule: Q01DX001 (ip), vehicle: carboxymethylcellulose (CMC)): 103 % of control
- T/C (dose: 400.0 mg/kg/injection, schedule: Q01DX001 (ip), vehicle: carboxymethylcellulose (CMC)): 94 % of control

Compound: CSc1nccc(=O)[nH]1
- T/C [1]: 100 % of control
- T/C [2]: 95 % of control
- T/C [3]: 102 % of control
- T/C [5]: 96 % of control

Compound: O=C(Nc1cc(C(F)(F)F)ccc1Cl)Nc1ccc(Cl)cc1[N+](=O)[O-]
- T/C [2]: 93 % of control
- T/C [4]: 87 % of control
- T/C [10]: 100 % of control

Compound: O=P(NN1CCCCC1)(NN1CCCCC1)c1ccccc1
- T/C (dose: 100.0 mg/kg/injection, schedule: Q01DX009 (ip), vehicle: carboxymethylcellulose (CMC)): 93 % of control
- T/C (dose: 200.0 mg/kg/injection, schedule: Q01DX009 (ip), vehicle: carboxymethylcellulose (CMC)): 93 % of control

Compound: Cc1[nH]c(=S)[nH]c(=O)c1CC(O)c1ccccc1 (centres undefined)
- T/C [3]: 92 % of control
- T/C [11]: 92 % of control
- T/C [12]: 94 % of control
- T/C [6]: 87 % of control
- T/C [13]: 89 % of control

Compound: C=CC1CCC2OC(=O)C(=C)C2C1 (centres undefined)
- T/C [11]: 101 % of control
- T/C [12]: 95 % of control
- T/C [13]: 101 % of control

Compound: COc1ccccc1-n1c(O)c(N=Nc2ccc(Cl)cc2)c(=O)n(-c2ccc(Cl)cc2)c1=S
- T/C (dose: 75.0 mg/kg/injection, schedule: Q04DX003 (ip), vehicle: Klucel (hydroxypropylcellulose) (HPC)): 94 % of control
- T/C (dose: 100.0 mg/kg/injection, schedule: Q01DX001 (ip), vehicle: Klucel (hydroxypropylcellulose) (HPC)): 94 % of control
- T/C (dose: 150.0 mg/kg/injection, schedule: Q04DX003 (ip), vehicle: Klucel (hydroxypropylcellulose) (HPC)): 103 % of control
- T/C (dose: 200.0 mg/kg/injection, schedule: Q01DX001 (ip), vehicle: Klucel (hydroxypropylcellulose) (HPC)): 100 % of control
- T/C (dose: 300.0 mg/kg/injection, schedule: Q04DX003 (ip), vehicle: Klucel (hydroxypropylcellulose) (HPC)): 90 % of control

Compound: Cc1ccc(CCCC#N)[nH]1
- T/C (dose: 100.0 mg/kg/injection, schedule: Q01DX001 (sc), vehicle: carboxymethylcellulose (CMC)): 110 % of control
- T/C (dose: 200.0 mg/kg/injection, schedule: Q01DX001 (sc), vehicle: carboxymethylcellulose (CMC)): 113 % of control

Compound: Cc1c(C#N)c2ccccc2c2ccccc12
- T/C [11]: 103 % of control
- T/C [12]: 103 % of control
- T/C [13]: 95 % of control

Compound: Cc1cc(C)c2cc(C=O)cc-2c(C)c1
- T/C [14]: 103 % of control
- T/C [15]: 94 % of control
- T/C (dose: 400.0 mg/kg/injection, schedule: Q04DX003 (ip), vehicle: saline with Tween-80): 93 % of control

Compound: c1ccc(-c2oc(-c3ccccc3)c3ccccc23)cc1
- T/C (dose: 6.25 mg/kg/injection, schedule: Q01DX009 (ip), vehicle: Klucel (hydroxypropylcellulose) (HPC)): 101 % of control
- T/C (dose: 6.25 mg/kg/injection, schedule: Q04DX003 (ip), vehicle: Klucel (hydroxypropylcellulose) (HPC)): 96 % of control
- T/C (dose: 12.5 mg/kg/injection, schedule: Q01DX009 (ip), vehicle: Klucel (hydroxypropylcellulose) (HPC)): 102 % of control
- T/C (dose: 12.5 mg/kg/injection, schedule: Q04DX003 (ip), vehicle: Klucel (hydroxypropylcellulose) (HPC)): 93 % of control
- T/C (dose: 25.0 mg/kg/injection, schedule: Q01DX009 (ip), vehicle: Klucel (hydroxypropylcellulose) (HPC)): 96 % of control
- T/C (dose: 25.0 mg/kg/injection, schedule: Q04DX003 (ip), vehicle: Klucel (hydroxypropylcellulose) (HPC)): 96 % of control

Compound: CC1(C(N)=O)OCCO1
- T/C [11]: 103 % of control
- T/C [12]: 96 % of control
- T/C [13]: 100 % of control

Compound: O=C1OC(=O)C2C1C1c3ccccc3C13c1ccccc1C23 (centres undefined)
- T/C (dose: 100.0 mg/kg/injection, schedule: Q01DX001 (ip), vehicle: saline): 92 % of control
- T/C [7]: 110 % of control
- T/C (dose: 200.0 mg/kg/injection, schedule: Q01DX001 (ip), vehicle: saline): 94 % of control
- T/C [8]: 100 % of control
- T/C (dose: 400.0 mg/kg/injection, schedule: Q01DX001 (ip), vehicle: saline): 97 % of control
- T/C [9]: 89 % of control

Compound: CN=C(N)NC
- T/C (dose: 50.0 mg/kg/injection, schedule: Q01DX009 (ip), vehicle: saline): 94 % of control
- T/C [7]: 100 % of control
- T/C [14]: 98 % of control
- T/C [8]: 91 % of control
- T/C [15]: 97 % of control

Compound: CC1CCCN(C(=O)Nc2cccc(Cl)c2Cl)C1 (centres undefined)
- T/C [2]: 87 % of control
- T/C [4]: 92 % of control
- T/C [10]: 96 % of control

Compound: CCN(CC)C(=O)Nc1cccc(OC(=O)NC)c1
- T/C [14]: 99 % of control
- T/C [15]: 98 % of control

Compound: O=c1ccc2cc3cc(I)c(O)c(I)c3oc-2c1I
- T/C [2]: 101 % of control
- T/C [4]: 99 % of control
